{"source": "patent US20190010217A1", "about": "“MOBILIZING HIV-INFECTED CELLS FROM LYMPHATIC RESERVOIRS” (INDIANA UNIVERSITY RESEARCH & TECHNOLOGY CORPORATION, priority 2016, published 2019)", "key": {"Nef-ER T1 cells": {"tested_on": "Nef-ER T1 cells", "assay": "Adhesion of Nef-ER T cells to endothelial cells (HUVEC co-culture, FACS)", "format": "cell-based", "details": "HIV-Nef expressing T cells (Nef-ER T1) on HUVECs; 10 μM atorvastatin pre-incubation at least 12 hours; FIG. 5", "description": "Nef was activated in Nef-ER cells by culturing them with RPMI1640+10% FBS (fetal bovine serum) and 1 μM 4-hydrotamoxifen for at least 6 hours or overnight at 37° C. For inhibitor use, the Nef-ER cells were pre-incubated for at least 12 hours with 10 μM atorvastatin. Other inhibitors may require shorter pre-incubations.\nApproximately 100K HUVECS were seeded per well in a collagen-coated 6-well plate. Cells were incubated overnight in EGM2(LONZA) medium. Nef-ER cells were stained using 5 μM Calcein AM (Ref C3100MP, Fischer Scientific) in 1 mL of staining solution and incubated for 30 minutes at 37° C. The cells were centrifuged at 300 g for 5 min, and the cell pellet was resuspended in 2 mL RPMI+10% FBS. Cells were centrifuged at 300 g for 5 min and the supernatant was removed.\nAfter staining, 1 μL of 1 mM 4-Hydrotamoxifen per ml of EGM2(LONZA) medium was added for final concentration of 1 μM. Stained T-cells were resuspended in EGM2 media at final concentration of 250,000 cells per ml. 250,000 stained T-cells were added to each well of 6-well plate of HUVECs for co-culture (with or without 10 μM atorvastatin to maintain inhibition) and incubated for 60 minutes. The plate was gently shaken one time after 30 minutes. Cells were washed very gently 3 times with PBS (phosphate buffered saline). Cells were then trypsinized and analyzed by fluorescence activated cell sorting (FACS)."}, "GPCRs-Gαi signaling": {"tested_on": "GPCRs-Gαi signaling", "details": "pretreatment of lymphocytes with PTX; cited from earlier work"}, "S1P1": {"target": "S1P1 (Homo sapiens, UniProt P21453)", "sequence (P21453 whole entry)": "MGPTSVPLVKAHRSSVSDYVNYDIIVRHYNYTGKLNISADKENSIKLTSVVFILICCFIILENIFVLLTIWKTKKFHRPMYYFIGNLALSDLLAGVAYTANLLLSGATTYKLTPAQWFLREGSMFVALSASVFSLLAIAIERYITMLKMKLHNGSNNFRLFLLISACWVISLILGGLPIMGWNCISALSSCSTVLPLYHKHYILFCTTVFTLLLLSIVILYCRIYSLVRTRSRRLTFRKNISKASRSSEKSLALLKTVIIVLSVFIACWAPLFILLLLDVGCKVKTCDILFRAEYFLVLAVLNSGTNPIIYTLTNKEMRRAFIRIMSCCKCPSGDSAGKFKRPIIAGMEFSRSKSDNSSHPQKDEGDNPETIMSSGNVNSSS", "assay": "Beta arrestin-TANGO assay (luciferase reporter) in HTLA cells transfected with Nef", "excerpt": "The role of beta arrestin in GPCR regulation, including S1P1 allows for the design and use of an S1P1 Arrestin-Tango expressing cell line (TANGO construct commercially available from AddGene) to test S1P1 signaling and its inhibitors. […] Upon activation of the S1P1 by an agonist, β-arrestin is recruited to the C-terminus of the receptor. This is followed by cleavage of the GPCR fusion protein at the TEV protease site. Cleavage results in the release of the tTA transcription factor, which after transport to the nucleus, activates transcription of the luciferase reporter gene. Thus, potential SNP1 inhibitors can be screened using the S1P1 Arresting Tango assay looking for an increase of luciferase activity indicating an increase in S1P1 signalling.\nThe role of beta arrestin in GPCR regulation, including S1P1, allows for the design and use of an S1P1 Arrestin-Tango expressing cell line (TANGO construct commercially available from AddGene) to test S1P1 signaling and its inhibitors. […] Upon activation of the S1P1 by an agonist, β-arrestin is recruited to the C-terminus of the receptor. This is followed by cleavage of the GPCR fusion protein at the TEV protease site. Cleavage results in the release of the tTA transcription factor, which after transport to the nucleus, activates transcription of the luciferase reporter gene.\nSpecifically, HTLA cells were transfected with NEF wt and analyzed for luciferase activity in response to increasing concentrations of sphingosine-phosphate (S1P)."}}, "note": "Entries after “also recorded” stand apart in the source; their conditions may differ.", "data": [{"molecule": "CC(C)c1c(C(=O)Nc2ccccc2)c(-c2ccccc2)c(-c2ccc(F)cc2)n1CC[C@@H](O)C[C@@H](O)CC(=O)O", "note": "[statin, atorvastatin]", "values": [{"measurement": "T cell adhesion", "setting": "Nef-ER T1 cells", "result": "reduces T cell adhesion"}]}, {"molecule": "Pertussis toxin", "values": [{"measurement": "retention of T cells in lymph nodes by fingolimod", "setting": "GPCRs-Gαi signaling", "result": "prevented the retention of T cells in lymph nodes"}]}, {"molecule": "sphingosine-phosphate [S1P]", "values": [{"measurement": "β-arrestin recruitment (luciferase activity) in response to increasing concentrations", "setting": "S1P1; HTLA cells transfected with NEF wt, increasing concentrations of S1P, FIG. 7", "result": "more activation"}, {"measurement": "β-arrestin activation (luciferase activity)", "setting": "S1P1; HTLA cells transfected with Nef, treated with 1mM S1P and/or FTY720, FIG. 8", "result": "significantly more activation; also recorded: increase in β-arrestin activation"}]}]}
